# Assay results published in patent publication US20260285853A1, “COMPOUNDS AND METHODS FOR MODULATING SPLICING” (REMIX THERAPEUTICS INC., priority 2023, published 2026).
# Key:
# Assay type in all cases: cell-based
# [1] = test system: HTT mRNA; test: Splicing RT-qPCR assay, canonical (CJ) and alternative (AJ) junction mRNA, K562 cells; conditions: Homo sapiens, K562.3 cells, 24 hours; for AC50: read-out: HTT AJ (AC50, increase in AJ mRNA); for IC50: read-out: HTT CJ (IC50, decrease in CJ mRNA)
# Procedure, shortened: (§1)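 Readout is one-step RT-qPCR of canonical and alternative exon junctions, housekeeper-normalized (GAPDH or GUSB), ΔΔCt against DMSO giving RQ and percentage response over set ΔCt assay windows. Compounds dosed 24 h to K562 cells, 11 points, 3-fold, max 10 uM, DMSO ≤0.25%.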
# [2] = test system: MYB mRNA; test: as above; conditions: Homo sapiens, K562.3 cells, 24 hours; for AC50: read-out: MYB AJ (AC50, increase in AJ mRNA); for IC50: read-out: MYB CJ (IC50, decrease in CJ mRNA)
# Procedure, shortened: as §1
# [3] = test system: HTT mRNA; test: Splicing RT-qPCR assay (THP), Table 2A
# [4] = test system: MYB mRNA; test: Splicing RT-qPCR assay (THP), Table 2A
# [5] = test system: SH-SY5Y (human neuroblastoma) cells; test: Cell viability, Cell Titer Glo 2.0 assay; conditions: read-out: Viability SHSY5Y.3 GI50
# Procedure, shortened: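 Viability was read by CellTiter-Glo 2.0 luminescence after a 72-hour compound exposure at 37° C. under 5% CO2. Cells were in IMDM plus 10% FBS containing 0.1% DMSO, and medium-only wells gave the blank.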
# [6] = Table 2A (THP), AJ mRNA increase, read-out: HTT AJ (increase in alternative junction mRNA, AC50)
# [7] = Table 2A (THP), CJ mRNA decrease, read-out: HTT CJ (decrease in canonical junction mRNA, IC50)
# [8] = Table 2A (THP), AJ mRNA increase, read-out: MYB AJ (increase in alternative junction mRNA, AC50)
# [9] = Table 2A (THP), CJ mRNA decrease, read-out: MYB CJ (decrease in canonical junction mRNA, IC50)
SMILES,IC50 [1] [nM],IC50 [2] [nM],"IC50 [3, 7] [nM]","IC50 [4, 9] [nM]",GI50 [5] [nM],"IC50 ([3]; Table 2A, THP, HTT canonical junction (CJ) mRNA, read-out: HTT CJ (IC50, decrease in canonical junction mRNA)) [nM]","IC50 ([4]; Table 2A, THP, MYB canonical junction (CJ) mRNA, read-out: MYB CJ (IC50, decrease in canonical junction mRNA)) [nM]",AC50 [1] [nM],AC50 [2] [nM],"AC50 [3, 6] [nM]","AC50 [4, 8] [nM]","AC50 ([3]; Table 2A, THP, HTT alternative junction (AJ) mRNA, read-out: HTT AJ (AC50, increase in alternative junction mRNA)) [nM]","AC50 ([4]; Table 2A, THP, MYB alternative junction (AJ) mRNA, read-out: MYB AJ (AC50, increase in alternative junction mRNA)) [nM]"
"CN[C@@H]1CCN(c2ccc(C(=O)Nc3cc(F)c4nc(C)cn4c3)c3nn(C)cc23)[C@H]1C [Compound 155, N-(8-fluoro-2-methylimidazo-[1,2-a]pyridin-6-yl)-2-methyl-4-[(2S,3R)-2-methyl-3-(methylamino)-pyrrolidin-1-yl]indazole-7-carboxamide]",> 10000,1000 to 10000,> 10000,> 10000,100 to 1000,,,> 10000,> 10000,> 10000,1000 to 10000,,
"COCCN[C@@H]1CCN(c2ccc(C(=O)Nc3cc(F)c4nc(C)cn4c3)c3nn(C)cc23)C1 [Compound 113, N-(8-fluoro-2-methyl-imidazo[1,2-a]pyridin-6-yl)-4-[(3R)-3-(2-methoxyethylamino)pyrrolidin-1-yl]-2-methyl-indazole-7-carboxamide]",> 10000,100 to 1000,> 10000,100 to 1000,1000 to 10000,,,> 10000,100 to 1000,> 10000,100 to 1000,,
"CCNC1CCN(c2cc(F)c(C(=O)Nc3cc(F)c4nc(C)cn4c3)c3ccoc23)CC1 [Compound 195, 7-[4-(ethylamino)-1-piperidyl]-5-fluoro-N-(8-fluoro-2-methylimidazo[1,2-a]pyridin-6-yl)-benzofuran-4-carboxamide]",> 10000,> 10000,> 10000,> 10000,1000 to 10000,,,> 10000,> 10000,> 10000,> 10000,,
"CN[C@H]1CCN(c2ccc(C(=O)Nc3cc(F)c4nc(C)cn4c3)c3nnn(C)c23)C1 [Compound 166, (S)-N-(8-fluoro-2-methylimidazo-[1,2-a]pyridin-6-yl)-1-methyl-7-(3-(methylamino)pyrrolidin-1-yl)-1H-benzo[d]-[1,2,3]triazole-4-carboxamide]",> 10000,100 to 1000,> 10000,1000 to 10000,1000 to 10000,,,> 10000,100 to 1000,> 10000,100 to 1000,,
"CCNC1CCN(c2ccc(C(=O)Nc3cc(F)c4nc(C)cn4c3)c3nnn(C)c23)CC1 [Compound 199, 7-[4-(ethylamino)-1-piperidyl]-N-(8-fluoro-2-methylimidazo[1,2-a]-pyridin-6-yl)-1-methylbenzotriazole-4-carboxamide]",> 10000,100 to 1000,> 10000,100 to 1000,1000 to 10000,,,> 10000,100 to 1000,> 10000,100 to 1000,,
"CO[C@H]1C[C@@H](N[C@H]2CCN(c3ccc(C(=O)Nc4cc(F)c5nc(C)cn5c4)c4nn(C)cc34)C2)C1 [Compound 277, N-(8-fluoro-2-methylimidazo[1,2-a]pyridin-6-yl)-4-((S)-3-(((1s,3R)-3-methoxy-cyclobutyl)amino)pyrrolidin-1-yl)-2-methyl-2H-indazole-7-carboxamide]",1000 to 10000,100 to 1000,1000 to 10000,100 to 1000,1000 to 10000,,,< 100,100 to 1000,1000 to 10000,100 to 1000,,
"COc1cc(N2CCNCC2)c2cn(C)nc2c1C(=O)Nc1cc(F)c2nc(C)cn2c1 [Compound 250, N-(8-fluoro-2-methyl-imidazo[1,2-a]pyridin-6-yl)-6-methoxy-2-methyl-4-piperazin-1-yl-indazole-7-carboxamide]",> 10000,> 10000,> 10000,1000 to 10000,> 10000,,,> 10000,> 10000,> 10000,1000 to 10000,,
"Cc1cn2cc(NC(=O)c3ccc(N4C[C@@H](C)N[C@@H](C)C4)c4[nH]cnc34)cc(F)c2n1 [Compound 220, 7-[(3R,5S)-3,5-dimethylpiperazin-1-yl]-N-(8-fluoro-2-methyl-imidazo[1,2-a]pyridin-6-yl)-1H-1,3-benzodiazole-4-carboxamide]",1000 to 10000,100 to 1000,> 10000,100 to 1000,1000 to 10000,,,> 10000,100 to 1000,1000 to 10000,100 to 1000,,

# Second part, led by results:
IC50 [1] [nM],IC50 [2] [nM],"IC50 [3, 7] [nM]","IC50 [4, 9] [nM]",GI50 [5] [nM],"IC50 ([3]; Table 2A, THP, HTT canonical junction (CJ) mRNA, read-out: HTT CJ (IC50, decrease in canonical junction mRNA)) [nM]","IC50 ([4]; Table 2A, THP, MYB canonical junction (CJ) mRNA, read-out: MYB CJ (IC50, decrease in canonical junction mRNA)) [nM]",SMILES,AC50 [1] [nM],AC50 [2] [nM],"AC50 [3, 6] [nM]","AC50 [4, 8] [nM]","AC50 ([3]; Table 2A, THP, HTT alternative junction (AJ) mRNA, read-out: HTT AJ (AC50, increase in alternative junction mRNA)) [nM]","AC50 ([4]; Table 2A, THP, MYB alternative junction (AJ) mRNA, read-out: MYB AJ (AC50, increase in alternative junction mRNA)) [nM]"
1000 to 10000,100 to 1000,1000 to 10000,100 to 1000,100 to 1000,,,"Cc1cn2cc(NC(=O)c3ccc(N4CCC(NC5CC5)CC4)c4ccoc34)cc(F)c2n1 [Compound 191, 4-[4-(cyclopropylamino)-1-piperidyl]-N-(8-fluoro-2-methyl-imidazo[1,2-a]pyridin-6-yl) benzofuran-7-carboxamide]",1000 to 10000,100 to 1000,1000 to 10000,< 100,,
100 to 1000,100 to 1000,100 to 1000,100 to 1000,100 to 1000,,,"CCNC1CCN(c2ccc(C(=O)Nc3cc(C)c4nc(C)cn4n3)c3nn(C)cc23)CC1 [Compound 186, N-(2,8-dimethylimidazo [1,2-b]pyridazin-6-yl)-4-[4-(ethylamino)-1-piperidyl]-2-methyl-indazole-7-carboxamide]",100 to 1000,100 to 1000,100 to 1000,100 to 1000,,
1000 to 10000,100 to 1000,,,1000 to 10000,1000 to 10000,100 to 1000,Cc1cn2cc(NC(=O)c3ccc(N4C[C@@H](C)N[C@@H](C)C4)c4c3nnn4C)cc(F)c2n1 [Compound 635],1000 to 10000,100 to 1000,,,1000 to 10000,100 to 1000
100 to 1000,100 to 1000,1000 to 10000,< 100,1000 to 10000,,,"CCNC1CCN(c2ccc(C(=O)Nc3cc(OC)c4nc(C)cn4c3)c3nn(C)cc23)CC1 [Compound 175, 4-(4-(ethylamino)piperidin-1-yl)-N-(8-methoxy-2-methyl-imidazo-[1,2-a]pyridin-6-yl)-2-methyl-2H-indazole-7-carboxamide]",1000 to 10000,100 to 1000,1000 to 10000,< 100,,
1000 to 10000,1000 to 10000,> 10000,100 to 1000,> 10000,,,"COCC1(N[C@H]2CCN(c3ccc(C(=O)Nc4cc(F)c5nc(C)cn5c4)c4nn(C)cc34)C2)CC1 [Compound 118, (S)—N-(8-fluoro-2-methylimidazo[1,2-a]pyridin-6-yl)-4-(3-((1-(methoxymethyl)cyclopropyl)amino)pyrrolidin-1-yl)-2-methyl-2H-indazole-7-carboxamide]",> 10000,1000 to 10000,> 10000,1000 to 10000,,
< 100,< 100,< 100,< 100,< 100,,,"CNC1(C)CCN(c2ccc(C(=O)Nc3cn4cc(C)nc4c(OC)n3)c3nn(C)cc23)CC1 [Compound 197, N-(8-methoxy-2-methylimidazo[1,2-a]pyrazin-6-yl)-2-methyl-4-(4-methyl-4-(methylamino)piperidin-1-yl)-2H-indazole-7-carboxamide]",< 100,< 100,< 100,< 100,,
100 to 1000,100 to 1000,100 to 1000,< 100,100 to 1000,,,"CCNC1CCN(c2ccc(C(=O)Nc3cc(F)c4nc(C)oc4c3)c3nn(C)cc23)CC1 [Compound 200, 4-(4-(ethylamino)piperidin-1-yl)-N-(4-fluoro-2-methylbenzo[d]-oxazol-6-yl)-2-methyl-2H-indazole-7-carboxamide]",1000 to 10000,< 100,1000 to 10000,< 100,,
< 100,< 100,< 100,< 100,< 100,,,"CNC1(C)CCN(c2cc(F)c(C(=O)Nc3cc(F)c4nc(C)cn4c3)c3nn(C)cc23)CC1 [Compound 179, 6-fluoro-N-(8-fluoro-2-methyl-imidazo[1,2-a]pyridin-6-yl)-2-methyl-4-[4-methyl-4-(methylamino)-1-piperidyl]indazole-7-carboxamide]",< 100,< 100,< 100,< 100,,
